Literature values as cited in patent US20010014685A1, “Injectable pharmaceutical composition for treatment and reversal of erectile dysfunction” (USA DOCTORS PRODUCTS, INC., priority 1998, published 2001).

Test system: erectile dysfunction
Conditions: injectable products including only prostaglandin-E1 / existing preparations

CCCCC[C@H](O)/C=C/[C@H]1[C@H](O)CC(=O)[C@@H]1CCCCCCC(=O)O [prostaglandin-E1]
efficacy for treatment of erectile dysfunction: ≤ 50%
